In US20130089562A1, “METHODS OF TREATING LIVER CONDITIONS USING NOTCH2 ANTAGONISTS” (priority 2011, published 2013):

Key:
[1] = test system: Notch2 intracellular domain (ICD); assay: Notch2 signaling in cultured oval cells (Western blot for γ-secretase cleaved Notch2 ICD; Hes1 expression); assay type: cell-based, mouse; conditions: FIG. 2H
Excerpt: The anti-activated Notch2 antibody (clone 40-2-7) was generated against the peptide VIMAKRKRKHGSLW, corresponding to amino acids 1697-1710 of the human Notch2 protein sequence (SEQ ID NO:73), coupled to KLH (YenZym Custom Antibodies, LLC). Splenocytes from a rabbit producing an antibody with the appropriate specificity were used to generate hybridomas (Epitomics, Inc.). Clone 40-2-7 was identified by screening the resulting rabbit monoclonal antibodies by immunoblotting and immunohistochemistry. This antibody recognizes both human (FIG. 7B, left panel) and mouse (FIG. 7B, right panel) active Notch2 at endogenous levels.
Progenitors cultured in the culture system maintained growth (FIG. 2A) and formed colonies consisting of small, tightly packed cells with a high nuclear-cytoplasmic ratio and a distinct raised edge (FIG. 2A, left panel). The cells within these colonies were uniformly EpCAM positive (FIG. 2A, right panel). […] Activated Notch2 was detected by Western blot analysis using a rabbit monoclonal antibody raised against the S3 cleaved form of the human Notch2 protein (FIG. 7B). […]
Notch2 signaling was active in cultured oval cells, as transcriptionally active Notch2 intracellular domain (ICD) could be detected using an antibody specific to the γ-secretase cleaved form of this receptor (FIG. 2H). […]

[2] = test system: primary oval cells (liver progenitor cells); assay: Colony formation and proliferation of primary oval cell cultures on Sw-3T3 feeder fibroblasts; assay type: cell-based, mouse
Procedure: To identify the signals that regulate hepatocyte differentiation from liver progenitor cells, transcriptional profiling was performed on adult liver progenitors (oval cells) from mice fed a choline deficient, ethionine supplemented (CDE) diet (FIG. 1A; FIG. 5A). This CDE model is known in the art as a model of chronic liver disease. CDE is also a steatohepatitis model (NASH). Chronic CDE can also lead to hepatocellular carcinoma (HCC), thereby also serving as a model for HCC. To induce an oval cell response, 8-12 week-old female C57BL/6N mice (Charles River) were fed a choline deficient diet (20% Lard; Teklad TD.04523) supplemented with 0.15% (w/v) Ethionine in the drinking water (Akhurst et al., Hepatology 34(3):519 (2001)). Liver non-parenchymal cells were isolated according to the protocol of del Castillo (del Castillo et al., Am. J. Pathol., 172(5):1238 (2008)) with the addition of 0.04% Hyaluronidase (Sigma) to the in vitro dissociation step.
To elucidate the role of Notch signaling in liver regeneration, an in vitro culture system was developed. Cell cultures were established by culturing primary oval cells on Sw-3T3 fibroblasts (ATCC), arrested with Mitomycin C (Sigma), in High Glucose Dulbecco's Modified Eagle Medium (DMEM; Invitrogen) supplemented with 15% Fetal Calf Serum (Sigma), non-essential amino acids (Invitrogen), Glutamax (Invitrogen), and ITS (Invitrogen).

C[C@H](NC(=O)Cc1cc(F)cc(F)c1)C(=O)N[C@H](C(=O)OC(C)(C)C)c1ccccc1 [DAPT, N—[N-(3,5-difluorophenacetyl)-1-alanyl]-S-phenylglycine t-butyl ester]
appearance of γ-secretase cleaved (active) form of Notch2 [1]: absent
progenitor cell proliferation ([2]; FIG. 2D): small increase
enhancement of colony formation ([2]; primary cultures treated with DAPT, FIG. 2B): approximately ten-fold
